According to patent US20210078917A1, “FUNGICIDAL FERTILIZER COMPOSITION COMPRISING POTASSIUM PHOSPHITE AND GAMMA-POLY-GLUTAMIC ACID” (JIANGSU HUIFENG BIO AGRICULTURE CO., LTD., priority 2018, published 2021):

Tests used:
root rot of potatoes = experiment: Disease control test of potatoes (field), root rot; assay type: in vivo, potato
Method: (1) Yield increase and disease control test of potatoes with fungicidal fertilizer composition of the present invention. This test was conducted in 2017 in Anding District, Dingxi City, Gansu Province. This area is a typical semi-arid rain-fed agricultural area. The soil type is loessial soil, with deep soil layers and uniform soil fertility. The previous crop is rape. The fertilizer of the present invention was totally applied as a base fertilizer at a time. […] Ridging after flat planting in wide and narrow rows was adopted. The wide row spacing was 60 cm, the narrow row spacing was 30 cm, the plant spacing was 30 cm, the sowing depth was 15 cm, and the plant density was 58,000 plants·hm^−2. Other field management was the same as that in large area of field. The number of large- and medium-sized potatoes ([…]) per plant was randomly determined, and the relative increase rate of large- and medium-sized potatoes was determined. The yield per mu and the relative increase rate of yield were determined. The crude starch content and increase rate of crude starch content were determined. The control effect on root rot of potatoes was also determined.

Chinese wolfberry = experiment: Yield increase and quality test of Chinese wolfberry; assay type: in vivo, Chinese wolfberry "Ningqi No. 7"
Method: The test was carried out in a Chinese wolfberry planting test plot in Koluke Town, Delingha City, Qinghai Province. Chinese wolfberry plants were all three-year-old seedlings of variety “Ningqi No. 7” at a density of 270 plants/667 m^2. This experiment was designed such that different plots were arranged in order. […]. Fertilization method: It was applied together with other base fertilizers, by laying the fertilizer at the bottom of the planting pit, where the depth of the trench was 70 cm, the diameter of the pit was 80 cm, and the soil was mixed in and applied at the bottom when applying fertilizer. The yield, quality and control effect on disease on fresh Chinese wolfberry fruit were determined.

γ-poly-glutamic acid
Control effect (root rot of potatoes; amount 50 g active ingredient/mu, 10 days after application): 9.87%
Control effect (root rot of potatoes; amount 50 g active ingredient/mu, 30 days after application): 4.34%
Control effect (root rot of potatoes; amount 100 g active ingredient/mu, 10 days after application): 17.34%
Control effect (root rot of potatoes; amount 100 g active ingredient/mu, 30 days after application): 14.47%
Control effect (root rot of potatoes; amount 400 g active ingredient/mu, 10 days after application): 32.51%
Control effect (root rot of potatoes; amount 400 g active ingredient/mu, 30 days after application): 25.37%
Quality: Polysaccharide (Chinese wolfberry; 50 g/mu): 8.79%
Quality: Total amino acid content (Chinese wolfberry; 50 g/mu): 7.53%
Yield of fresh Chinese wolfberry fruit: Weight per 100 fruits (Chinese wolfberry; 50 g/mu): 117.5 g
Yield of fresh Chinese wolfberry fruit: Yield (Chinese wolfberry; 50 g/mu): 2524.5 kg/mu
Quality: Polysaccharide (Chinese wolfberry; 100 g/mu): 9.54%
Quality: Total amino acid content (Chinese wolfberry; 100 g/mu): 7.68%
Yield of fresh Chinese wolfberry fruit: Weight per 100 fruits (Chinese wolfberry; 100 g/mu): 124.7 g
Yield of fresh Chinese wolfberry fruit: Yield (Chinese wolfberry; 100 g/mu): 2658.6 kg/mu
